Laboratory results: patent US20260102340A1, “Therapeutic Formulation” (1000739373 Ontario Ltd., priority 2022, published 2026)
“And” between values parts separate entries of the source, which are not always exact repeats. Identical values can stand only once.

What was measured:
Type in all cases: physicochemical
[1] = Visual solubility of formulations packaged in glass bottles; details: for Visual appearance in glass bottles: 5° C.
[2] = Quantitative solubility of melatonin in ethanol/HFA 152a (filtered supersaturated solutions, HPLC)
Description: Data was obtained at 5° C. (see FIG. 15 and FIG. 16) and T=20° C. (see FIG. 17 and FIG. 18) and presented as % w/w, μg/50 μl and μg/63 μl (see also Table 4).

[3] = Melatonin drug residual (total can content) after storage at 40° C. and 75% relative humidity; details: for Initial Melatonin t = 0 (can content) / Initial Melatonin t = 0, mean: 100 μg/50 μL
Description: Drug residual measurements (total can content) was determined following storage at 40° C. and 75% relative humidity.
Each canister type was packaged with metering valve 1908 (Aptar™, 50 μl) (MDI batches OZ211003/RJ/A and OZ211003/RJ/C) and metering valves 1904 (Bespak™ 50 μl, with dip tube 1906) (MDI batches OZ211003/RJ/B and OZ211003/RJ/D).

[4] = 6% w/w ethanol, HFA 152a, Plain Aluminum 14 ml canister, Metering Valve 1904 (with dip tube 1906)
[5] = 6% w/w ethanol, HFA 152a, Plain Aluminum 14 ml canister, Metering Valve 1908
[6] = 6% w/w ethanol, HFA 152a, Plasma Coated 14 ml canister, Metering Valve 1904 (with dip tube 1906)
[7] = 6% w/w ethanol, HFA 152a, Plasma coated 14 ml canister, Metering Valve 1908
[8] = Plain Aluminum canister, Metering Valve 1904 (with dip tube 1906), t = 1 month @ 40° C./75% RH, stored Inverted
[9] = Plain Aluminum canister, Metering Valve 1904 (with dip tube 1906), t = 1 month @ 40° C./75% RH, stored Upright
[10] = Plain Aluminum canister, Metering Valve 1904 (with dip tube 1906), t = 3 month @ 40° C./75% RH, stored Inverted (valve down)
[11] = Plain Aluminum canister, Metering Valve 1904 (with dip tube 1906), t = 3 month @ 40° C./75% RH, stored Upright (valve up)
[12] = Plain Aluminum canister, Metering Valve 1908, t = 1 month @ 40° C./75% RH, stored Inverted
[13] = Plain Aluminum canister, Metering Valve 1908, t = 1 month @ 40° C./75% RH, stored Upright
[14] = Plain Aluminum canister, Metering Valve 1908, t = 3 month @ 40° C./75% RH, stored Inverted (valve down)
[15] = Plain Aluminum canister, Metering Valve 1908, t = 3 month @ 40° C./75% RH, stored Upright (valve up)
[16] = Plasma Coated canister, Metering Valve 1904 (with dip tube 1906), t = 1 month @ 40° C./75% RH, stored Inverted
[17] = Plasma Coated canister, Metering Valve 1904 (with dip tube 1906), t = 1 month @ 40° C./75% RH, stored Upright
[18] = Plasma Coated canister, Metering Valve 1904 (with dip tube 1906), t = 3 month @ 40° C./75% RH, stored Inverted (valve down)
[19] = Plasma Coated canister, Metering Valve 1904 (with dip tube 1906), t = 3 month @ 40° C./75% RH, stored Upright (valve up)
[20] = Plasma coated canister, Metering Valve 1908, t = 1 month @ 40° C./75% RH, stored Inverted
[21] = Plasma coated canister, Metering Valve 1908, t = 1 month @ 40° C./75% RH, stored Upright
[22] = Plasma coated canister, Metering Valve 1908, t = 3 month @ 40° C./75% RH, stored Inverted (valve down)
[23] = Plasma coated canister, Metering Valve 1908, t = 3 month @ 40° C./75% RH, stored Upright (valve up)

Visual solubility ([1]; 50 μg/50 μl in 5% ethanol and HFA 134a, T=5° C. and T=20° C.): confirmed visually
Visual solubility ([1]; 100 μg/50 μl (5% w/w ethanol), HFA 152a, 4° C. and 20° C.): soluble
Visual solubility in glass bottles ([1]; 100 μg/50 μl in 12% w/w ethanol and HFA 134a, T=5° C. and T=20° C.): confirmed visually
Visual appearance in glass bottles ([1]; 100 μg/50 μl, 6% w/w ethanol in HFA 152a): clear solutions
Visual appearance in glass bottles ([1]; 200 μg/50 μl, 8% w/w ethanol in HFA 152a): clear solutions
Visual solubility ([1]; 500 μg/50 μl (15% w/w ethanol), HFA 152a, 4° C. and 20° C.): soluble
*Melatonin μg per 56 mg (63 μl) ([2]; 0% w/w ethanol, T = 5° C.): 8 μg per 56 mg (63 μl)
Melatonin %(w/w) in filtered supersaturated HFA152a solution ([2]; 0% w/w ethanol, T = 5° C.): 0.01 %(w/w)
Melatonin μg per 44 mg (50 μl) ([2]; 0% w/w ethanol, T = 5° C.): 6 μg per 44 mg (50 μl)
*Melatonin μg per 56 mg (63 μl) ([2]; 0% w/w ethanol, T = 20° C.): 9 μg per 56 mg (63 μl)
Melatonin %(w/w) in filtered supersaturated HFA152a solution ([2]; 0% w/w ethanol, T = 20° C.): 0.02 %(w/w)
Melatonin μg per 44 mg (50 μl) ([2]; 0% w/w ethanol, T = 20° C.): 7 μg per 44 mg (50 μl)
*Melatonin μg per 56 mg (63 μl) ([2]; 5% w/w ethanol, T = 5° C.): 121 μg per 56 mg (63 μl)
Melatonin %(w/w) in filtered supersaturated HFA152a solution ([2]; 5% w/w ethanol, T = 5° C.): 0.22 %(w/w)
Melatonin μg per 44 mg (50 μl) ([2]; 5% w/w ethanol, T = 5° C.): 95 μg per 44 mg (50 μl)
*Melatonin μg per 56 mg (63 μl) ([2]; 5% w/w ethanol, T = 20° C.): 159 μg per 56 mg (63 μl)
Melatonin %(w/w) in filtered supersaturated HFA152a solution ([2]; 5% w/w ethanol, T = 20° C.): 0.28 %(w/w)
Melatonin μg per 44 mg (50 μl) ([2]; 5% w/w ethanol, T = 20° C.): 125 μg per 44 mg (50 μl)
*Melatonin μg per 56 mg (63 μl) ([2]; 8% w/w ethanol, T = 5° C.): 270 μg per 56 mg (63 μl)
Melatonin %(w/w) in filtered supersaturated HFA152a solution ([2]; 8% w/w ethanol, T = 5° C.): 0.48 %(w/w)
Melatonin μg per 44 mg (50 μl) ([2]; 8% w/w ethanol, T = 5° C.): 212 μg per 44 mg (50 μl)
*Melatonin μg per 56 mg (63 μl) ([2]; 8% w/w ethanol, T = 20° C.): 395 μg per 56 mg (63 μl)
Melatonin %(w/w) in filtered supersaturated HFA152a solution ([2]; 8% w/w ethanol, T = 20° C.): 0.70 %(w/w)
Melatonin μg per 44 mg (50 μl) ([2]; 8% w/w ethanol, T = 20° C.): 310 μg per 44 mg (50 μl)
*Melatonin μg per 56 mg (63 μl) ([2]; 10% w/w ethanol, T = 5° C.): 339 μg per 56 mg (63 μl)
Melatonin %(w/w) in filtered supersaturated HFA152a solution ([2]; 10% w/w ethanol, T = 5° C.): 0.60 %(w/w)
Melatonin μg per 44 mg (50 μl) ([2]; 10% w/w ethanol, T = 5° C.): 266 μg per 44 mg (50 μl)
*Melatonin μg per 56 mg (63 μl) ([2]; 10% w/w ethanol, T = 20° C.): 456 μg per 56 mg (63 μl)
Melatonin %(w/w) in filtered supersaturated HFA152a solution ([2]; 10% w/w ethanol, T = 20° C.): 0.82 %(w/w)
Melatonin μg per 44 mg (50 μl) ([2]; 10% w/w ethanol, T = 20° C.): 359 μg per 44 mg (50 μl)
*Melatonin μg per 56 mg (63 μl) ([2]; 15% w/w ethanol, T = 5° C.): 588 μg per 56 mg (63 μl)
Melatonin %(w/w) in filtered supersaturated HFA152a solution ([2]; 15% w/w ethanol, T = 5° C.): 1.05 %(w/w)
Melatonin μg per 44 mg (50 μl) ([2]; 15% w/w ethanol, T = 5° C.): 462 μg per 44 mg (50 μl)
*Melatonin μg per 56 mg (63 μl) ([2]; 15% w/w ethanol, T = 20° C.): 817 μg per 56 mg (63 μl)
Melatonin %(w/w) in filtered supersaturated HFA152a solution ([2]; 15% w/w ethanol, T = 20° C.): 1.46 %(w/w)
Melatonin μg per 44 mg (50 μl) ([2]; 15% w/w ethanol, T = 20° C.): 642 μg per 44 mg (50 μl)
Initial Melatonin t = 0 (can content) [3, 4]: 15408 µg and 15450 µg and 15897 µg
Initial Melatonin t = 0, mean [3, 4]: 15.6 mg
Initial Melatonin t = 0 (can content) [3, 5]: 16200 µg and 15676 µg and 15379 µg
Initial Melatonin t = 0, mean [3, 5]: 15.8 mg
Initial Melatonin t = 0 (can content) [3, 6]: 15417 µg and 15682 µg and 15292 µg
Initial Melatonin t = 0, mean [3, 6]: 15.5 mg
Initial Melatonin t = 0 (can content) [3, 7]: 15430 µg and 15517 µg and 15810 µg
Initial Melatonin t = 0, mean [3, 7]: 15.6 mg
Residual melatonin at 3-month ([3]; MDIs stored valve down): 93% to 96
Residual Melatonin [3, 8]: 15162 µg and 14967 µg
Residual Melatonin % of t = 0 [3, 8]: 97 % of t = 0
Residual Melatonin [3, 9]: 14959 µg and 15331 µg
Residual Melatonin % of t = 0 [3, 9]: 97 % of t = 0
Residual Melatonin [3, 10]: 14652 µg and 14318 µg
Residual Melatonin % of t = 0 [3, 10]: 93 % of t = 0
Residual Melatonin [3, 11]: 14721 µg and 14847 µg
Residual Melatonin % of t = 0 [3, 11]: 98 % of t = 0
Residual Melatonin [3, 12]: 15171 µg and 15131 µg
Residual Melatonin % of t = 0 [3, 12]: 98 % of t = 0
Residual Melatonin [3, 13]: 15403 µg and 15581 µg
Residual Melatonin % of t = 0 [3, 13]: 100 % of t = 0
Residual Melatonin [3, 14]: 14920 µg and 14914 µg
Residual Melatonin % of t = 0 [3, 14]: 96 % of t = 0
Residual Melatonin [3, 15]: 15600 µg and 15422 µg
Residual Melatonin % of t = 0 [3, 15]: 100 % of t = 0
Residual Melatonin [3, 16]: 14872 µg and 14984 µg
Residual Melatonin % of t = 0 [3, 16]: 97 % of t = 0
Residual Melatonin [3, 17]: 14944 µg and 15211 µg
Residual Melatonin % of t = 0 [3, 17]: 98 % of t = 0
Residual Melatonin [3, 18]: 14634 µg and 14510 µg
Residual Melatonin % of t = 0 [3, 18]: 94 % of t = 0
Residual Melatonin [3, 19]: 14805 µg and 14789 µg
Residual Melatonin % of t = 0 [3, 19]: 98 % of t = 0
Residual Melatonin [3, 20]: 15024 µg and 14980 µg
Residual Melatonin % of t = 0 [3, 20]: 96 % of t = 0
Residual Melatonin [3, 21]: 15578 µg and 15444 µg
Residual Melatonin % of t = 0 [3, 21]: 100 % of t = 0
Residual Melatonin [3, 22]: 14661 µg and 14791 µg
Residual Melatonin % of t = 0 [3, 22]: 94 % of t = 0
Residual Melatonin [3, 23]: 15461 µg and 15469 µg
Residual Melatonin % of t = 0 [3, 23]: 100 % of t = 0
Residual melatonin at 1-month ([3]; all packaging and storage conditions, 40° C./75% RH): 96-98%
Residual melatonin at 3-month ([3]; stored valve up, both canister types, metering valve 1904 (Bespak with dip tube 1906)): 98%
Residual melatonin at 3-month ([3]; stored valve up, both canister types, metering valve 1908 (Aptar)): 100%
Initial time point residual, % of the target formulation ([3]; t = 0, 100 μg/50 μl, 6% w/w ethanol, HFA 152a): 97.5±1.7%
Compound: COc1ccc2[nH]cc(CCNC(C)=O)c2c1 [Melatonin]
